pIC50: −log10 of the molar value.
Columns and labels:
[1] = molecular target: human CSNK1D tagged with nanoluciferase (Homo sapiens (Human), UniProt P48730); test: Whole Cell nBRET CSNK1D Binding Assay; settings: living CHO cells stably expressing human CSNK1D-nanoluciferase; NanoBret tracer 130 nM; 2 hours 37° C.; read-out: CSNK1D BRET IC50
Experimental: This cellular binding assay uses a bioluminescence resonance energy transfer to measure human CSNK1D binding activity in living Chinese Hamster Ovary (CHO) cells that are stably expressing human CSNK1D tagged with nanoluciferase. The cells were grown to confluency in growth media (DMEM:F12, 50 u/mLPen/Strep, […] glutamine, and 0.6 mg/mL G418) in 10 cm^2 dishes. Cells were seeded onto white, opaque 384-well plates (Corning, cat #3704) at a density of 8,000 cells/well in serum-free OptiMEM and left to incubated overnight at 37° C., […]. The next day, test compounds were added in a dose response to the plate followed by a NanoBret tracer (130 nM). The plate is mixed on an orbital shaker for 30 seconds, then placed in a 37° C. incubator for 2 hours. NanoBret Nano-Glo Substrate solution (20 μL) is added to all wells and incubated for 3 minutes at room temperature. Donor (450 nm) and acceptor (630 nm) emissions are then measured within 10 minutes using a ClarioStar plate reader. The data is used to calculate millibret units, defined as (E630/E450)*1000. Bret emissions are then graphed against the log of compound concentrations and these graphs are used to determine the IC50 of each compound.

[2] = molecular target: human recombinant GST cleaved CSNK1D (Homo sapiens (Human), UniProt P48730); test: Purified enzyme assay (ADP-Glo Kinase Assay); type: biochemical; settings: 2 nM CSNK1D, peptide substrate 150 μM, ATP 20 μM, 45 minutes room temperature
Experimental: In this assay, CSNK1D phosphorylates a substrate peptide PLSRTL-pS-VASLPGL in the presence of ATP. […] This assay monitors CSNK1D kinase activity by measuring the amount of ADP produced in the assay. A substrate mix is prepared by diluting peptide substrate (final concentration 150 μM) with ATP (final concentration 20 μM) in assay buffer (50 mM Tris/HCl pH 7.4+10 mM MgCl2+1 mM DTT+0.1% BSA). The substrate mix is added to each well of a low volume, 384-well, white opaque plate. Test compounds were diluted in HBSS and added in a dose-response to the plate. To start the reaction, 2 nM of constitutively active human recombinant GST cleaved CSNK1D (University of Dundee, clone DU 19064, stored at 0.28 mg/mL in 50 mM Tris/HCl pH 7.5, 150 mM NaCl, 270 mM Sucrose, 0.1 mM EGTA, 0.1% 2-mercaptoethanol, 0.02% Brij-35.1 mM benzamidine, 0.2 mM PMSF) was added to each well and the plate centrifuged for 5 minutes at 1500 rpm. The total volume of each reaction is 5 ul (2 μL of substrate mix, 1 μL of diluted compounds, and 2 μL of human recombinant CSNK1D). The plates are incubated for 45 minutes at room temperature.
ADP was quantified using the ADP-Glo™ Kinase Assay. ADP-Glo Reagent (5 μL) was added to each well. After a 1 hour incubation at room temperature, Kinase Detection Reagent (10 μL) was added to each well and incubated for 30 minutes. Luminescence was measured on the Perkin Elmer Wallac EnVision 2104 Multi-label Reader. The raw data from the Envision is used to calculate percent activity.

Sequence of human CSNK1D tagged with nanoluciferase (P48730 whole entry): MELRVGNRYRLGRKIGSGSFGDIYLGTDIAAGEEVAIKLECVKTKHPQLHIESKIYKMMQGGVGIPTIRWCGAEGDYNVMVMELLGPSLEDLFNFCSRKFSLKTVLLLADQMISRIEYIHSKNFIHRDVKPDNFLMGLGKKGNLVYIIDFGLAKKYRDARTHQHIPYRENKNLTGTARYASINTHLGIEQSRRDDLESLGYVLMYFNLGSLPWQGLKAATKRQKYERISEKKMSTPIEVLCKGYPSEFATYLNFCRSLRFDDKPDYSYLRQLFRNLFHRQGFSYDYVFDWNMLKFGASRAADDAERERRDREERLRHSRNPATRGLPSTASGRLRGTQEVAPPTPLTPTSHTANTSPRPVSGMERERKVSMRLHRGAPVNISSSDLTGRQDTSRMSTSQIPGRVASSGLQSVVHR
Sequence of human recombinant GST cleaved CSNK1D (P48730 whole entry): as above

`CC(C)n1cc(-c2ccnc3[nH]ccc23)c(-c2ccc(F)cn2)n1` [Example 58, 4-[3-(5-Fluoro-2-pyridyl)-1-isopropyl-pyrazol-4-yl]-1H-pyrrolo[2,3-b]pyridine] showed a pIC50 [1] of 7.01 and an AC50 [2] of 17 nM.

`CC(C)n1cc(-c2ccnc3[nH]ncc23)c(-c2ccc(F)cn2)n1` [Example 59, 4-(3-(5-Fluoropyridin-2-yl)-1-isopropyl-1H-pyrazol-4-yl)-1H-pyrazolo[3,4-b]pyridine] was tested, and the pIC50 [1] was 6.49 and the AC50 [2] was 44 nM.

`Cc1cc(-c2cn(C(C)C)nc2-c2ccc(F)cn2)c2cn[nH]c2n1` [Example 60, 4-(3-(5-Fluoropyridin-2-yl)-1-isopropyl-1H-pyrazol-4-yl)-6-methyl-1H-pyrazolo[3,4-b]pyridine] gave a pIC50 [1] of 6.43 and an AC50 [2] of 11 nM.

Compound `CC(C)Cn1cc(-c2ccnc3[nH]ccc23)c(-c2ccc(F)cn2)n1` [Example 61, 4-[3-(5-Fluoro-2-pyridyl)-1-isobutyl-pyrazol-4-yl]-1H-pyrrolo[2,3-b]pyridine] has a pIC50 [1] of 6.94 and an AC50 [2] of 14 nM.

In the case of `CC(C)Cn1cc(-c2ccnc3[nH]ncc23)c(-c2ccc(F)cn2)n1` [Example 62, 4-(3-(5-Fluoropyridin-2-yl)-1-isobutyl-1H-pyrazol-4-yl)-1H-pyrazolo[3,4-b]pyridine], the pIC50 [1] was 6.32 and the AC50 [2] was 8 nM.

With `Cc1cc(-c2cn(CC(C)C)nc2-c2ccc(F)cn2)c2cn[nH]c2n1` [Example 63, 4-(3-(5-Fluoropyridin-2-yl)-1-isobutyl-1H-pyrazol-4-yl)-6-methyl-1H-pyrazolo[3,4-b]pyridine] the pIC50 [1] was 6.60 and the AC50 [2] was 6 nM.

For `COCCn1cc(-c2cc(C)nc3[nH]ncc23)c(-c2ccc(F)cn2)n1` [Example 64, 4-(3-(5-Fluoropyridin-2-yl)-1-(2-methoxyethyl)-1H-pyrazol-4-yl)-6-methyl-1H-pyrazolo[3,4-b]pyridine], the pIC50 [1] was 6.41 and the AC50 [2] was 19 nM.

`Fc1ccc(-c2nn(C(F)F)cc2-c2ccnc3[nH]ccc23)nc1` [Example 65, 4-[1-(Difluoromethyl)-3-(5-fluoro-2-pyridyl)pyrazol-4-yl]-1H-pyrrolo[2,3-b]pyridine] showed a pIC50 [1] of 6.77 and an AC50 [2] of 21 nM.

Work on `Fc1ccc(-c2nn(C(F)F)cc2-c2ccnc3[nH]ncc23)nc1` [Example 66, 4-(1-(Difluoromethyl)-3-(5-fluoropyridin-2-yl)-1H-pyrazol-4-yl)-1H-pyrazolo[3,4-b]pyridine] yielded a pIC50 [1] of 5.97 and an AC50 [2] of 526 nM.

Work on `Cc1cc(-c2cn(C(F)F)nc2-c2ccc(F)cn2)c2cn[nH]c2n1` [Example 67, 4-(1-(Difluoromethyl)-3-(5-fluoropyridin-2-yl)-1H-pyrazol-4-yl)-6-methyl-1H-pyrazolo[3,4-b]pyridine] yielded a pIC50 [1] of 5.88 and an AC50 [2] of 18 nM.

`FCCn1cc(-c2ccnc3[nH]ccc23)c(-c2ccc(F)cn2)n1` [Example 68, 4-[1-(2-Fluoroethyl)-3-(5-fluoro-2-pyridyl)pyrazol-4-yl]-1H-pyrrolo[2,3-b]pyridine] showed a pIC50 [1] of 7.10 and an AC50 [2] of 4 nM.

`Cc1cc(-c2cn(CC(F)F)nc2-c2ccc(F)cn2)c2cn[nH]c2n1` [Example 69, 4-(1-(2,2-Difluoroethyl)-3-(5-fluoropyridin-2-yl)-1H-pyrazol-4-yl)-6-methyl-1H-pyrazolo[3,4-b]pyridine] was tested, and the pIC50 [1] was 6.51 and the AC50 [2] was 6 nM.

With `Cc1cc(-c2cn(CC(F)(F)F)nc2-c2ccc(F)cn2)c2cn[nH]c2n1` [Example 70, 4-(3-(5-Fluoropyridin-2-yl)-1-(2,2,2-trifluoroethyl)-1H-pyrazol-4-yl)-6-methyl-1H-pyrazolo[3,4-b]pyridine] the pIC50 [1] was 6.63 and the AC50 [2] was 12 nM.

In the case of `Cc1cc(-c2cn(C3CCC3)nc2-c2ccc(F)cn2)c2cn[nH]c2n1` [Example 71, 4-(1-Cyclobutyl-3-(5-fluoropyridin-2-yl)-1H-pyrazol-4-yl)-6-methyl-1H-pyrazolo[3,4-b]pyridine], the pIC50 [1] was 6.95 and the AC50 [2] was 3 nM.

Compound `Fc1ccc(-c2nn(C3COC3)cc2-c2ccnc3[nH]ccc23)nc1` [Example 72, 4-[3-(5-Fluoro-2-pyridyl)-1-(oxetan-3-yl)pyrazol-4-yl]-1H-pyrrolo[2,3-b]pyridine] has a pIC50 [1] of 6.87 and an AC50 [2] of 8 nM.

For `Cc1cc(-c2cn(C3COC3)nc2-c2ccc(F)cn2)c2cn[nH]c2n1` [Example 73, 4-(3-(5-Fluoropyridin-2-yl)-1-(oxetan-3-yl)-1H-pyrazol-4-yl)-6-methyl-1H-pyrazolo[3,4-b]pyridine], the pIC50 [1] was 6.24 and the AC50 [2] was 20 nM.

`Cn1cc(-c2ccnc3[nH]cc(Br)c23)c(-c2ccc(F)cn2)n1` [Example 75, 3-Bromo-4-[3-(5-fluoro-2-pyridyl)-1-methyl-pyrazol-4-yl]-1H-pyrrolo[2,3-b]pyridine] showed a pIC50 [1] of 7.62 and an AC50 [2] of 1 nM.

`Cn1cc(-c2ccnc3[nH]cc(Cl)c23)c(-c2ccc(F)cn2)n1` [Example 76, 3-Chloro-4-[3-(5-fluoro-2-pyridyl)-1-methyl-pyrazol-4-yl]-1H-pyrrolo[2,3-b]pyridine] gave a pIC50 [1] of 7.77 and an AC50 [2] of 1 nM.

In the case of `Cn1cc(-c2ccnc3[nH]cc(F)c23)c(-c2ccc(F)cn2)n1` [Example 77, 3-Fluoro-4-[3-(5-fluoro-2-pyridyl)-1-methyl-pyrazol-4-yl]-1H-pyrrolo[2,3-b]pyridine], the pIC50 [1] was 7.28 and the AC50 [2] was 7 nM.

With `Cn1cc(-c2c(F)cnc3[nH]ccc23)c(-c2ccc(F)cn2)n1` [Example 78, 5-Fluoro-4-[3-(5-fluoro-2-pyridyl)-1-methyl-pyrazol-4-yl]-1H-pyrrolo[2,3-b]pyridine] the pIC50 [1] was 7.30 and the AC50 [2] was 4 nM.

In the case of `Cc1cnc2[nH]ccc2c1-c1cn(C)nc1-c1ccc(F)cn1` [Example 79, 4-[3-(5-Fluoro-2-pyridyl)-1-methyl-pyrazol-4-yl]-5-methyl-1H-pyrrolo[2,3-b]pyridine], the pIC50 [1] was 7.28 and the AC50 [2] was 7 nM.

`Cc1cc(-c2cn(C)nc2-c2ccc(F)cn2)c2cc[nH]c2n1` [Example 80, 4-[3-(5-Fluoro-2-pyridyl)-1-methyl-pyrazol-4-yl]-6-methyl-1H-pyrrolo[2,3-b]pyridine] showed a pIC50 [1] of 7.39 and an AC50 [2] of 1 nM.

With `Cc1cc2c(-c3cn(C)nc3-c3ccc(F)cn3)ccnc2[nH]1` [Example 81, 4-(3-(5-Fluoropyridin-2-yl)-1-methyl-1H-pyrazol-4-yl)-2-methyl-1H-pyrrolo[2,3-b]pyridine] the pIC50 [1] was 5.84 and the AC50 [2] was 84 nM.

Compound `Cc1c[nH]c2nccc(-c3cn(C)nc3-c3ccc(F)cn3)c12` [Example 82, 4-[3-(5-Fluoro-2-pyridyl)-1-methyl-pyrazol-4-yl]-3-methyl-1H-pyrrolo[2,3-b]pyridine] has a pIC50 [1] of 7.23 and an AC50 [2] of 6 nM.

Compound `CC(C)c1cc2c(-c3cn(C)nc3-c3ccc(F)cn3)ccnc2[nH]1` [Example 83, 4-(3-(5-Fluoropyridin-2-yl)-1-methyl-1H-pyrazol-4-yl)-2-isopropyl-1H-pyrrolo[2,3-b]pyridine] has a pIC50 [1] of 5.80 and an AC50 [2] of 54 nM.

`Cn1cc(-c2ccnc3[nH]c(C(F)F)cc23)c(-c2ccc(F)cn2)n1` [Example 84, 2-(Difluoromethyl)-4-(3-(5-fluoropyridin-2-yl)-1-methyl-1H-pyrazol-4-yl)-1H-pyrrolo[2,3-b]pyridine] gave a pIC50 [1] of 6.65 and an AC50 [2] of 23 nM.

`Cn1cc(-c2ccnc3[nH]c(C(F)(F)F)cc23)c(-c2ccc(F)cn2)n1` [Example 85, 4-(3-(5-Fluoropyridin-2-yl)-1-methyl-1H-pyrazol-4-yl)-2-(trifluoromethyl)-1H-pyrrolo[2,3-b]pyridine] was tested, and the pIC50 [1] was 6.59 and the AC50 [2] was 22 nM.

— patent publication US20230339900A1, “CASEIN KINASE 1 DELTA MODULATORS” (Janssen Pharmaceutica NV, priority 2020, published 2023)
